Measured values reported in patent US4072574A, “System for in vitro assay for mutagenicity and/or carcinogenicity of chemicals or other exogenous agents” (priority 1976, dated 1978).

Experiments:
[1] = Fidelity of in vitro DNA synthesis (error frequency) with AMV DNA polymerase copying synthetic polynucleotide templates; settings: amv dna polymerase
Description: (§1) In this invention, the ability of carcinogens to decrease the fidelity of in vitro DNA synthesis will be used to screen for carcinogenic or mutagenic agents. The system uses synthetic polynucleotides of defined composition which may be copied in the test tubes with procaryotic, eucaryotic or viral DNA polymerases. The use of synthetic polynucleotides of defined composition allows the measurement of the simultaneous incorporation of the correct, complementary nucleotide and an incorrect, non-complementary nucleotide. The correct nucleotide is labeled with [α-^32 P] of low specific activity and the incorrect nucleotide is labeled with [^3 H] of high specific activity. Through this double labeled reaction it is possible to determine the simultaneous incorporation of both nucleotides and thus to determine an error frequency. The error frequency may be defined as the ratio of the incorrect/correct nucleotide incorporation. Agents which increase this error frequency may be scored as positive. […] Agents which score positive would be checked using different templates to underscore the positive results. In this system different polymerases will be used as well as different templates. One would expect that most carcinogens would change the fidelity of DNA synthesis with different polymerases as well as with different templates though this need not be the case.
(§2) Each assay will consist of a polymerase, a polynucleotide template that only contains one or two nucleotides, a complementary nucleotide and a non-complementary nucleotide as well as magnesium. Both of the nucleotides will be labeled by radioactive precursors and the ratio between the two is to be used for a measure of error frequency in the system. In instances where a template requires two complementary nucleotides, only one will be radioactively labeled.
(§3) Reactions (total volume 0.05 ml) which measured complementary nucleotide incorporation contained 50 mM Tris-HCL (pH 8.0), 20 mM KCl, 5 mM dithiothreitol, 5 mM MgCl2, 2μg BSA, […] [α-^32 P] -dTTP (60 dpm/pmole), 1μg poly (A).oligo (dT) (1:1.5 mass ratio), and 0.45 μg of AMV DNA polymerase. For simultaneous quantitation of complementary and non-complementary nucleotide incorporation each reaction was modified to contain 26μM [α-^32 P]dTTP (12 dpm/pmole) and 23μM [^3 H]-dCTP (50,000 dpm/pmole). […] Metals were added directly to the reaction mixture as aqueous solutions of chloride salts. All reactions were incubated for 60 min. at 37° C. Incorporation of radioactive nucleotides into an acid-insoluble and alkali-resistant product was determined by using the precipitation-solubilization procedure as described by Battula and Loeb. All experiments were performed in triplicate and the averages were determined.
(§4) In order to determine the effect of different metals on the accuracy of DNA replication, metal cations were added as chloride salts directly to the polymerase reaction. In these experiments, poly (A).oligo (dT) was the template-primer and the simultaneous incorporation of complementary nucleotide, [α-^32 P]-dTMP, and the non-complementery nucleotide, [^3 H]-dCMP, was determined.
(§5) The effect of metal salts on the fidelity of DNA synthesis was examined by testing each of the metal salts at a minimum of seven different concentrations.

AMV DNA polymerase [2] = assay: as above; settings: for effect on error frequency (in words): dTMP complementary, dCMP non-complementary
Description: as §1, §2, §3, §4, §5

AMV DNA polymerase [3] = assay: Metal requirements for catalysis by AMV DNA polymerase; type: biochemical, avian myeloblastosis virus; settings: poly (A).oligo (dT); for ability to substitute for Mg^2+ as added divalent cation: absence of Mg^2+, Be^2+ up to 15 mM
Protocol: All known DNA polymerases require either Mg^2+ or Mn^2+ as an added divalent cation for activity. AMV DNA polymerase used Mg^2+ as an added divalent cation and the maximum rate of polymerization with poly (A).oligo (dT) was attained at 5 mM Mg^2+. […] Thymidine monophosphate incorporation with Be^2+ was less than 0.3% of that obtained with 5 mM Mg^2+.

[4] = known status of the compound; cited from earlier work
[5] = Table 1, template poly [d(A-T)], classes 1-3 not defined
[6] = 2 mM added cation + Mg^2+ 5 mM, poly (A).oligo (dT)
[7] = 2 mM added cation + Mg^2+ 5 mM, poly (A).oligo (dT), dCMP/dTMP
[8] = 6 mM added cation + Mg^2+ 5 mM, poly (A).oligo (dT)
[9] = 6 mM added cation + Mg^2+ 5 mM, poly (A).oligo (dT), dCMP/dTMP
[10] = 10 mM added cation + Mg^2+ 5 mM, poly (A).oligo (dT)
[11] = 10 mM added cation + Mg^2+ 5 mM, poly (A).oligo (dT), dCMP/dTMP
[12] = Table 1, template poly (A).oligo (dT), classes 1-3 not defined
[13] = 1 mM added cation + Mg^2+ 5 mM, poly (A).oligo (dT)
[14] = 5 mM added cation + Mg^2+ 5 mM, poly (A).oligo (dT)
[15] = 4 mM MgSO4, template in drawing 6
[16] = 6 mM MgSO4, template in drawing 6
[17] = 8 mM MgSO4, template in drawing 6
[18] = 10 mM MgSO4, template in drawing 6
[19] = Table 1, template poly (C).oligo (dG), classes 1-3 not defined
[20] = Mg^2+ 2 mM alone, poly (A).oligo (dT)
[21] = Mg^2+ 5 mM alone, poly (A).oligo (dT)
[22] = Mg^2+ 8 mM alone, poly (A).oligo (dT)
[23] = Mg^2+ 15 mM alone, poly (A).oligo (dT)
[24] = 4 mM added cation + Mg^2+ 5 mM, poly (A).oligo (dT)

## CC(=O)O [Ba(C2 H3 O2)2]
[1]; poly [d(a-t)]
  fold induction at 1 h: 0.94
AMV DNA polymerase [2]; [5]
  Class: 2
AMV DNA polymerase [2]; template poly [d(A-T)]
  Metal Concentration which yielded the largest observed change in error rate: 10 mM

## [Ba+2].[Cl-].[Cl-] [BaCl2]
AMV DNA polymerase [3]
  ability to substitute for Mg^2+ as added divalent cation: unable to substitute for Mg^2+
[4]
  Carcinogen or Mutagen: -
AMV DNA polymerase [2]; [6]
  Complementary Nucleotide (pmoles dTMP): 240 pmol
  Non-Complementary Nucleotide (pmoles dCMP): 0.42 pmol
AMV DNA polymerase [2]; [7]
  Error Frequency: 1/578
AMV DNA polymerase [2]; [8]
  Complementary Nucleotide (pmoles dTMP): 243 pmol
  Non-Complementary Nucleotide (pmoles dCMP): 0.46 pmol
AMV DNA polymerase [2]; [9]
  Error Frequency: 1/528
AMV DNA polymerase [2]; [10]
  Complementary Nucleotide (pmoles dTMP): 317 pmol
  Non-Complementary Nucleotide (pmoles dCMP): 0.61 pmol
AMV DNA polymerase [2]; [11]
  Error Frequency: 1/520
AMV DNA polymerase [2]; [12]
  Class: 2
AMV DNA polymerase [2]; poly (A).oligo (dT)
  effect on error frequency (in words): did not affect either the incorporation of the complementary or non-complementary nucleotides
AMV DNA polymerase [2]; template poly (A).oligo (dT)
  Metal Concentration which yielded the largest observed change in error rate: 10 mM

## [Ca+2].[Cl-].[Cl-] [CaCl2]
AMV DNA polymerase [3]
  ability to substitute for Mg^2+ as added divalent cation: unable to substitute for Mg^2+
[4]
  Carcinogen or Mutagen: -
AMV DNA polymerase [2]; [13]
  Complementary Nucleotide (pmoles dTMP): 704 pmol
  Non-Complementary Nucleotide (pmoles dCMP): 0.70 pmol
AMV DNA polymerase [2]; 1 mM added cation + Mg^2+ 5 mM, poly (A).oligo (dT), dCMP/dTMP
  Error Frequency: 1/1005
AMV DNA polymerase [2]; [6]
  Complementary Nucleotide (pmoles dTMP): 129 pmol
  Non-Complementary Nucleotide (pmoles dCMP): 0.19 pmol
AMV DNA polymerase [2]; [7]
  Error Frequency: 1/681
AMV DNA polymerase [2]; [14]
  Complementary Nucleotide (pmoles dTMP): 55 pmol
  Non-Complementary Nucleotide (pmoles dCMP): 0.083 pmol
AMV DNA polymerase [2]; 5 mM added cation + Mg^2+ 5 mM, poly (A).oligo (dT), dCMP/dTMP
  Error Frequency: 1/665
AMV DNA polymerase [2]; [12]
  Class: 2
AMV DNA polymerase [2]; poly (A).oligo (dT)
  effect on error frequency (in words): did not alter the error frequency
AMV DNA polymerase [2]; template poly (A).oligo (dT)
  Metal Concentration which yielded the largest observed change in error rate: 5 mM

## O=P([O-])(O)O.[K+] [KH2 PO4]
[4]
  Carcinogen or Mutagen: -
AMV DNA polymerase [2]; [5]
  Class: 2
AMV DNA polymerase [2]; template poly [d(A-T)]
  Metal Concentration which yielded the largest observed change in error rate: 80 mM

## O=S(=O)([O-])[O-].[Mg+2] [MgSO4]
[4]
  Carcinogen or Mutagen: -
AMV DNA polymerase [2]; [15]
  Complementary Deoxynucleotide Incorporation: 299 pmol
  Error Frequency: 1/598
  Non-complementary Deoxynucleotide Incorporation: 0.50 pmol
AMV DNA polymerase [2]; [16]
  Complementary Deoxynucleotide Incorporation: 398 pmol
  Error Frequency: 1/632
  Non-complementary Deoxynucleotide Incorporation: 0.63 pmol
AMV DNA polymerase [2]; [17]
  Complementary Deoxynucleotide Incorporation: 349 pmol
  Error Frequency: 1/635
  Non-complementary Deoxynucleotide Incorporation: 0.55 pmol
AMV DNA polymerase [2]; [18]
  Complementary Deoxynucleotide Incorporation: 360 pmol
  Error Frequency: 1/621
  Non-complementary Deoxynucleotide Incorporation: 0.58 pmol
AMV DNA polymerase [2]; [19]
  Class: 3
AMV DNA polymerase [2]; Table 2, classes not defined
  Class: 3
AMV DNA polymerase [2]; template poly (C).oligo (dG)
  Metal Concentration which yielded the largest observed change in error rate: 10 mM

## [Cl-].[Cl-].[Mg+2] [Mg^2+, magnesium chloride]
AMV DNA polymerase [3]
  Mg^2+ concentration at which the maximum rate of polymerization was attained: 5 mM
AMV DNA polymerase [2]; [20]
  Complementary Nucleotide (pmoles dTMP): 320 pmol
  Non-Complementary Nucleotide (pmoles dCMP): 0.56 pmol
AMV DNA polymerase [2]; Mg^2+ 2 mM alone, poly (A).oligo (dT), dCMP/dTMP
  Error Frequency: 1/571
AMV DNA polymerase [2]; [21]
  Complementary Nucleotide (pmoles dTMP): 600 pmol
  Non-Complementary Nucleotide (pmoles dCMP): 1.16 pmol
AMV DNA polymerase [2]; Mg^2+ 5 mM alone, poly (A).oligo (dT), dCMP/dTMP
  Error Frequency: 1/517
AMV DNA polymerase [2]; [22]
  Complementary Nucleotide (pmoles dTMP): 520 pmol
  Non-Complementary Nucleotide (pmoles dCMP): 1.00 pmol
AMV DNA polymerase [2]; Mg^2+ 8 mM alone, poly (A).oligo (dT), dCMP/dTMP
  Error Frequency: 1/520
AMV DNA polymerase [2]; [23]
  Complementary Nucleotide (pmoles dTMP): 240 pmol
  Non-Complementary Nucleotide (pmoles dCMP): 0.90 pmol
AMV DNA polymerase [2]; Mg^2+ 15 mM alone, poly (A).oligo (dT), dCMP/dTMP
  Error Frequency: 1/600
AMV DNA polymerase [2]; poly (A).oligo (dT)
  effect on error frequency (in words): invariant with respect to Mg^2+ concentration

## O=CO [NH4 COOH]
[1]; poly [d(a-t)]
  fold induction at 1 h: 0.83
AMV DNA polymerase [2]; [5]
  Class: 2
AMV DNA polymerase [2]; template poly [d(A-T)]
  Metal Concentration which yielded the largest observed change in error rate: 100 mM

## CC(=O)O [NaC2 H3 O2]
[4]
  Carcinogen or Mutagen: -
[1]; poly(c).oligo(dg)
  fold induction at 1 h: 1
AMV DNA polymerase [2]; [19]
  Class: 2
AMV DNA polymerase [2]; template poly (C).oligo (dG)
  Metal Concentration which yielded the largest observed change in error rate: 100 mM

## O=C(O)O [NaHCO3]
[4]
  Carcinogen or Mutagen: -
[1]; poly [d(a-t)]
  fold induction at 1 h: 0.96
AMV DNA polymerase [2]; [5]
  Class: 2
AMV DNA polymerase [2]; template poly [d(A-T)]
  Metal Concentration which yielded the largest observed change in error rate: 40 mM

## [Na+].[OH-] [NaOH]
[4]
  Carcinogen or Mutagen: -
AMV DNA polymerase [2]; [5]
  Class: 3
AMV DNA polymerase [2]; template poly [d(A-T)]
  Metal Concentration which yielded the largest observed change in error rate: 10 mM

## [Cl][Pb][Cl] [PbCl2]
[4]
  Carcinogen or Mutagen: +
AMV DNA polymerase [2]; [19]
  Class: 1
AMV DNA polymerase [2]; template poly (C).oligo (dG)
  Metal Concentration which yielded the largest observed change in error rate: 4 mM

## [Cl-].[Rb+] [RbCl2]
[4]
  Carcinogen or Mutagen: -
AMV DNA polymerase [2]; [5]
  Class: 2
AMV DNA polymerase [2]; template poly [d(A-T)]
  Metal Concentration which yielded the largest observed change in error rate: 20 mM

## [Cl-].[Cl-].[Sr+2] [SrCl2]
[4]
  Carcinogen or Mutagen: -
AMV DNA polymerase [2]; [24]
  Complementary Nucleotide (pmoles dTMP): 798 pmol
  Non-Complementary Nucleotide (pmoles dCMP): 0.86 pmol
AMV DNA polymerase [2]; 4 mM added cation + Mg^2+ 5 mM, poly (A).oligo (dT), dCMP/dTMP
  Error Frequency: 1/927
AMV DNA polymerase [2]; [8]
  Complementary Nucleotide (pmoles dTMP): 936 pmol
  Non-Complementary Nucleotide (pmoles dCMP): 0.96 pmol
AMV DNA polymerase [2]; [9]
  Error Frequency: 1/975
AMV DNA polymerase [2]; [10]
  Complementary Nucleotide (pmoles dTMP): 845 pmol
  Non-Complementary Nucleotide (pmoles dCMP): 0.86 pmol
AMV DNA polymerase [2]; [11]
  Error Frequency: 1/982
AMV DNA polymerase [2]; [12]
  Class: 3
AMV DNA polymerase [2]; poly (A).oligo (dT)
  effect on error frequency (in words): did not affect either the incorporation of the complementary or non-complementary nucleotides
AMV DNA polymerase [2]; template poly (A).oligo (dT)
  Metal Concentration which yielded the largest observed change in error rate: 10 mM

## [Cl-].[Cl-].[Zn+2] [ZnCl2]
[4]
  Carcinogen or Mutagen: ±
AMV DNA polymerase [2]; [5]
  Class: 2
AMV DNA polymerase [2]; template poly [d(A-T)]
  Metal Concentration which yielded the largest observed change in error rate: 0.4 mM
